Results from US5210027A, “DNA encoding novel antimicrobial polypeptide and methods for obtaining such polypeptide” (INCYTE Pharmaceuticals, Inc., priority 1991, dated 1993).

Tests used:
Format in all cases: cell-based
[1] = tested on: Candida albicans (clinical isolate); experiment: Microbicidal assay (colony forming units) against Candida albicans; details: in vitro
Protocol: (§1) Microbicidal activity was routinely tested against Escherichia coli K12 (MC4100), Streptococcus faecalis (ATCC Accession No. 29212) and Candida albicans (clinical isolate). Organisms from a single colony on agar plates were inoculated into liquid medium and cultured overnight at 37° C. Aliquots of the overnight culture were inoculated into fresh nutrient broth and grown to mid-exponential phase. Cultures were then diluted into the test medium to the appropriate concentration.
Samples from reverse-phase liquid chromatography to be tested for microbicidal activity were dried by vacuum centrifugation in Immulon I microtire plates in the presence of 50 μl 0.1% BSA. Dried samples were resuspended in 0.1% acetic acid and returned to dryness by vacuum centrifugation. Samples were then resuspended in assay buffer and after appropriate dilutions of samples had been made, test organisms were added to the wells and incubation at 37° C. was carried out for 30 to 60 minutes. Killing of all organisms was carried out in 20 mM phosphate pH 6, 0.25M glucose and 0.02% Tween 20 unless otherwise indicated. […] Colony forming units were determined manually or by automated counting after overnight incubation at 37° C.

[2] = tested on: Streptococcus faecalis (ATCC Accession No. 29212); experiment: Microbicidal assay (colony forming units) against Streptococcus faecalis
Protocol: as §1
(§2) Samples from reverse-phase liquid chromatography to be tested for microbicidal activity were dried by vacuum centrifugation in Immulon I microtire plates in the presence of 50 μl 0.1% BSA. Dried samples were resuspended in 0.1% acetic acid and returned to dryness by vacuum centrifugation. Samples were then resuspended in assay buffer and after appropriate dilutions of samples had been made, test organisms were added to the wells and incubation at 37° C. was carried out for 30 to 60 minutes. Killing of all organisms was carried out in 20 mM phosphate pH 6, 0.25M glucose and 0.02% Tween 20 unless otherwise indicated. A volume of the assay mixture corresponding to 200-300 organisms in the control assays were plated onto trypticase soy agar plates (Escherichia coli and Streptococcus faecalis) or spread onto Sabouraud dextrose agar plates (Candida albicans). Colony forming units were determined manually or by automated counting after overnight incubation at 37° C.

[3] = tested on: Escherichia coli K12 (MC4100); experiment: Microbicidal assay (colony forming units) against Escherichia coli
Protocol: as §1, §2

[4] = in vitro, 20 mM phosphate pH 6, 0.25M glucose, 0.02% Tween 20, 37° C., 30 to 60 minutes, relative to Peak 1 (defensins)

## val-cys-ser-cys-arg-leu-val-phe-cys-arg-arg-thr-glu-leu-arg-val-gly-asn-cys-leu-ile-gly-gly-val-ser-phe-thr-tyr-cys-cys-thr-arg-val [Peak 2]
[1]
  microbicidal activity compared with a mixture of previously described defensins: significantly more active
[1]; 20 mM phosphate pH 6, 0.25M glucose, 0.02% Tween 20, 37° C., 30 to 60 minutes, relative to Peak 1 (defensins)
  microbicidal activity, fold more active than Peak 1: about 5 fold
[2]; against bacteria, FIG. 7
  effect of detergents Tween 20 and NP40 on microbicidal activity: enhanced
[2]; in vitro
  microbicidal activity compared with a mixture of previously described defensins: significantly more active
[2]; [4]
  concentration required to reach the indicated levels of killing (50% or 90%), fold less than for Peak 1: about 100 fold
[3]; against bacteria, FIG. 7
  effect of detergents Tween 20 and NP40 on microbicidal activity: enhanced
[3]; in vitro
  microbicidal activity compared with a mixture of previously described defensins: significantly more active
[3]; [4]
  microbicidal activity, fold more active than Peak 1: 15-30 fold
